Values quoted from earlier work in US12636242B2, “Increased solubilization of diethylamino hydroxybenzoyl hexyl benzoate” (DSM IP ASSETS B.V., priority 2020, dated 2026).
Where two headings read alike, the source gives them in different places.

[1] = listed as Diethylamino hydroxybenzoyl hexyl benzoate

CCCCCCOC(=O)c1ccccc1C(=O)c1ccc(N(CC)CC)cc1O [UV-filter of the formula (I), diethylamino hydroxybenzoyl hexyl benzoate]
Solubility in esters and alcohols (ethyl hexyl-benzoate, ethanol): very soluble | Solubility in esters and alcohols (ethyl hexyl-benzoate, ethanol) [1]: moderate solubility | Solubility in water and alkanes: insoluble | Solubility in water and alkanes [1]: very low
